Source: ChEMBL document CHEMBL1129045, “Potential antitumor agents. 24. Synthesis and pharmacological behavior of imidazo[2,1-b]thiazole guanylhydrazones bearing at least one chlorine” (J Med Chem, 1996)
Values after ≈ are worked out from the molar mass of the structure shown.

Assays:
[1] = test system: HeLa; assay: Compound was tested in vitro for cytotoxicity against HeLa cells.; format: functional, cell-based, Homo sapiens
[2] = test system: Mus musculus; assay: Compound was tested in vivo antitumor activity against Ehrlich ascites in mice at 1 mg/kg ip; format: functional; conditions: route intraperitoneal
[3] = test system: Mus musculus; assay: Compound was tested in vivo antitumor activity against Ehrlich ascites in mice at 12.5 mg/kg ip; format: functional; conditions: route intraperitoneal
[4] = Compound was tested for initial contractile force 0.4+/-0.1 g (% deltabase line value)
[5] = test system: Mus musculus; assay: Compound was tested in vivo antitumor activity against Ehrlich ascites in mice at 50 mg/kg ip; format: functional; conditions: route intraperitoneal
[6] = test system: Mus musculus; assay: Compound was tested in vivo antitumor activity against Ehrlich ascites in mice at 25 mg/kg ip; format: functional; conditions: route intraperitoneal
[7] = Compound was tested for concentration to obtain Emax (microg)
[8] = test system: Mus musculus; assay: Compound was tested in vivo antitumor activity against Ehrlich ascites in mice at 100 mg/kg ip; format: functional; conditions: route intraperitoneal
[9] = species: Cavia porcellus; assay: Positive inotropic activity in isolated guinea pig atria, Concentration producing 50% of the maximal effect; format: functional
[10] = test system: Mus musculus; assay: Compound was tested in vivo antitumor activity against Ehrlich ascites in mice at 6.25 mg/kg ip; format: functional; conditions: route intraperitoneal

SMILES: COc1cccc2c1C(=O)c1c(O)c3c(c(O)c1C2=O)C[C@@](O)(C(=O)CO)C[C@@H]3O[C@H]1C[C@H](N)[C@H](O)[C@H](C)O1 [DOXORUBICIN]
- IC50 [1]: 0.005 mg/L (≈ 0.0092 µM)
- T/C [2]: 200%

SMILES: N=C(N)N/N=C/c1c(-c2ccc(Cl)c(Cl)c2Cl)nc2sccn12
- IC50 [1]: 2 mg/L (≈ 5.16 µM)
- T/C [3]: 180%

SMILES: Cc1sc2nc(Cl)c(/C=N/N=C(N)N)n2c1C
- Delta [4]: 137%
- T/C [5]: 100%
- IC50 [1]: > 10 mg/L

SMILES: Cc1csc2nc(Cl)c(/C=N/N=C(N)N)n12
- Delta [4]: 134%
- T/C [5]: 106%
- IC50 [1]: > 10 mg/L

SMILES: Cc1csc2nc(-c3ccc(Cl)cc3)c(/C=N/N=C(N)N)n12
- Delta [4]: 115%
- T/C [6]: 133%
- IC50 [1]: 2 mg/L (≈ 6.01 µM)

SMILES: COc1cc([S+](C)[O-])ccc1-c1nc2ncccc2[nH]1 (configuration not stated) [SULMAZOLE]
- Delta [4]: 163%
- Emax [7]: 350 µg

SMILES: N=C(N)N/N=C/c1c(-c2ccc(Cl)cc2Cl)nc2n1CCS2
- Delta [4]: 119%
- T/C [5]: 200%
- IC50 [1]: 5 mg/L (≈ 14.1 µM)

SMILES: N=C(N)N/N=C/c1c(Cl)nc2sc(Cl)cn12
- T/C [8]: 120%
- Delta [4]: 135%
- IC50 [1]: > 10 mg/L

SMILES: Cc1cn2c(/C=N/N=C(N)N)c(Cl)nc2s1
- Delta [4]: 146%
- T/C [5]: 106%
- IC50 [1]: > 10 mg/L
- EC50 [9]: 0.016 mg

SMILES: Cc1sc2nc(-c3ccc(Cl)cc3)c(/C=N/N=C(N)N)n2c1C
- Delta [4]: 118%
- IC50 [1]: 2 mg/L (≈ 5.77 µM)
- T/C [3]: 140%

SMILES: N=C(N)N/N=C/c1c(-c2ccc(Cl)cc2)nc2sc(Cl)cn12
- Delta [4]: 100%
- IC50 [1]: 0.6 mg/L (≈ 1.7 µM)
- T/C [3]: 166%

SMILES: N=C(N)N/N=C/c1c(-c2ccc(Cl)c(Cl)c2Cl)nc2n1CCS2
- Delta [4]: 111%
- T/C [5]: 166%
- IC50 [1]: 2.5 mg/L (≈ 6.42 µM)

SMILES: N=C(N)N/N=C/c1c(-c2ccc(Cl)cc2Cl)nc2sccn12
- Delta [4]: 100%
- T/C [6]: 146%
- IC50 [1]: 2.5 mg/L (≈ 7.08 µM)

SMILES: Cc1cn2c(/C=N/N=C(N)N)c(-c3ccc(Cl)cc3)nc2s1
- T/C [10]: 166%
- Delta [4]: 106%
- IC50 [1]: 1.5 mg/L (≈ 4.51 µM)

SMILES: O=c1[nH]cc(F)c(=O)[nH]1 [FLUOROURACIL]
- T/C [8]: 180%
- IC50 [1]: 6 mg/L (≈ 46.1 µM)
